# Assay results as given in patent publication US11059842B2, “Monosaccharide amine and 3-nitro-2-phenyl-2H-chromene based inhibitors of glucose kinases” (UNIVERSITY OF SOUTH CAROLINA, priority 2019, dated 2021).
# Values joined by “and” are separate entries in the source; they are usually repeats but may differ in a detail not shown here. Equal entries are not always repeated. Where two headings read alike, the source gives them in different places.
# How the values were obtained:
# HsHxKIV [1] = biological target: T1, HsHxKIV (Homo sapiens (Human), UniProt P35557); assay: HsHxKIV Michaelis-Menten kinetics; assay type: biochemical; details: substrate; triplicate runs
# T1 sequence (P35557 whole entry): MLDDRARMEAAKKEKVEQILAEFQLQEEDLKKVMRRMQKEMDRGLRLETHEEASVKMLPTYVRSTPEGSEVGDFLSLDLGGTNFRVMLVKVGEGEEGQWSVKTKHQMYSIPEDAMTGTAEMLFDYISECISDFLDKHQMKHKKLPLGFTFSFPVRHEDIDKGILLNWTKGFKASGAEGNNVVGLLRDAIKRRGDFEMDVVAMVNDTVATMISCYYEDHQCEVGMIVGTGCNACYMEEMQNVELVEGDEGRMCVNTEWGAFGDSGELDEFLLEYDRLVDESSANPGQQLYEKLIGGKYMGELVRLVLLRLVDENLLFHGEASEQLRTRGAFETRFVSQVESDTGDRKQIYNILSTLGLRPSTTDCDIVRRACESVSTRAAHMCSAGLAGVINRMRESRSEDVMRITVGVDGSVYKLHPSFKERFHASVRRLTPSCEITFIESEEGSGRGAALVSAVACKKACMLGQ
# Method: (§1) D-Glucose was also tested as a control with alternative substrates. The protein expression work for TcGlcK and HsHxKIV were each made possible through the E. coli strain BL21(DE3) system. Purification of each enzyme was performed through cobalt-NTA chromatography followed by size-exclusion chromatography; assessment of purity was performed by SDS-PAGE. In enzymatic assays, a time-optimum (TOPT) was determined to be 120 seconds for TcGlcK and 600 seconds for HsHxKIV; all assays were run at room temperature. A general reaction scheme included a first reaction in which the monosaccharide, ATP, and Mg^2+ react with the enzyme, e.g., TcGlcK, forming a hexose-phosphate and ADP. In a second reaction, hexose-phosphate with the assistance of glucose-6-phosphate dehydrogenase (G6PDH) and NADP^+ was converted to the lactone form of the hexose-phosphate and NADPH. Fluorescence of NADPH was monitored using a fluorescence microplate reader with […] wavelengths of 340 nm and 485 nm, respectively.
# FIG. 4 and FIG. 5 present typical Michaelis-Menten enzyme kinetic plots for D-glucose. […] Michaelis-Menten constant (KM) values, which were used as the set final assay concentrations of substrates D-glucose and ATP for the primary screens, were determined for both TcGlcK and HsHxKIV in triplicate runs. […]
# TcGlcK [2] = biological target: T2, TcGlcK (Trypanosoma cruzi (strain CL Brener), UniProt Q4E4E1); assay: TcGlcK Michaelis-Menten kinetics and substrate range; assay type: biochemical; details: substrate; triplicate runs
# T2 sequence (Q4E4E1 1-376): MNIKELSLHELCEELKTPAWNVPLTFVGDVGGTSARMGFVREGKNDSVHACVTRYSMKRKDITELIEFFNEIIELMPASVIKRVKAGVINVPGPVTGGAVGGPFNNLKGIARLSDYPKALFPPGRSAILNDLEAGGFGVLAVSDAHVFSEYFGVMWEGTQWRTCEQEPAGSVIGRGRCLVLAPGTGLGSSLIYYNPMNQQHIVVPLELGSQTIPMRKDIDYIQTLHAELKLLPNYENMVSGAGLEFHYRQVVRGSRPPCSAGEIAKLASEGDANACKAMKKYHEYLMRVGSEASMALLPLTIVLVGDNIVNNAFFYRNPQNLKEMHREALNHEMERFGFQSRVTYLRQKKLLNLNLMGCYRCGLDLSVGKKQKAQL
# Method: as §1
# (§2) FIG. 4 and FIG. 5 present typical Michaelis-Menten enzyme kinetic plots for D-glucose. As shown, the NADP^+ to NADPH turnover rate is a function of [D-glucose] & [ATP] for TcGlcK (FIG. 4) and HsHxKIV (FIG. 5) absent inhibition. Michaelis-Menten constant (KM) values, which were used as the set final assay concentrations of substrates D-glucose and ATP for the primary screens, were determined for both TcGlcK and HsHxKIV in triplicate runs. The KM values for TcGlcK with respect to D-glucose and ATP were 0.40 mM and 0.34 mM, respectively. The KM values for HsHxKIV with respect to D-glucose and ATP were 43 mM and 0.20 mM, respectively.
# All phosphorylated hexoses were shown getting converted into their corresponding products by G6PDH, in abundant quantities through a 30-second time frame. This permitted the standard TcGlcK […] assay, which was timed for […], to be used as an assay to analyze alternative substrates.
# HsHxKIV [3] = biological target: T1, HsHxKIV; assay: Primary assay screen of HsHxKIV, normalized percent inhibition (Example 2); assay type: biochemical; details: triplicate
# Method: (§3) Primary assay screens of TcGlcK, LbGlcK, and HsHxKIV against the 3-nitro-2-phenyl-2H-chromene-based inhibitors compound nos. 19-22 were carried out. Compound 1, Benzoyl glucosamine (BENZ-GlcN or simply “BENZ”) and carboxybenzyl glucosamine (CBZ-GlcN or simply “CBZ”) were both used as controls due to their known inhibition against TcGlcK. LbGlcK was chosen to be tested against these compounds due to its 44% protein sequence similarity to TcGlcK.
# (§4) All screens were done in triplicate and were analyzed using normalized percent inhibition (NPI) calculations. NPI calculations rely on positive and negative assay controls within the screen to account for any fluctuations in the fluorescence measurements.
# (§5) The NPI for a compound to be considered a “hit” against TcGlcK required a value exceeding 60.5% inhibition in the primary screen. All four compounds ([…]) qualified as hits based off of this parameter. LbGlcK required compounds to be above 12.6% inhibition in its primary screen; all four compounds were also qualified as hits.
# TcGlcK [4] = biological target: T2, TcGlcK; assay: Primary assay screen of TcGlcK, normalized percent inhibition (Example 2); assay type: biochemical; details: triplicate
# Method: as §3, §4, §5
# [5] = biological target: Trypanosoma cruzi glucokinase (TcGlcK) (Trypanosoma cruzi (strain CL Brener), UniProt Q4E4E1); assay type: biochemical; details: for TcGlcK Inh20 (%): percentage of inhibition at 20 μM of the compound, N = 1
# Chain of Trypanosoma cruzi glucokinase (TcGlcK) (Q4E4E1 1-376): as above
# Method: as §1, with “In enzymatic assays, a time-optimum (TOPT) was determined to be 120 seconds for TcGlcK and 600 seconds for HsHxKIV; all assays were run at room temperature.” left out
# Michaelis-Menten constant (KM) values, which were used as the set final assay concentrations of substrates D-glucose and ATP for the primary screens, were determined for both TcGlcK and HsHxKIV in triplicate runs. […]
# The cutoff percentage was calculated by using normalized percent inhibition that took into consideration the positive and negative controls of the fluorescence readout from a fluorescence microplate reader. In addition, an unconfirmed hit was selected if the activity measurement was three standard deviations away from the mean of the positive controls.
# [6] = tested on: glucose-6-phosphate dehydrogenase (G6PDH); assay: G6PDH confirmatory assay (coupling enzyme counter-screen); assay type: biochemical; details: 20 μM compound; quadruplicate
# Method: The 16 compounds showing substantial inhibition against TcGlcK at compound concentrations of 20 μM were then examined in a confirmatory assay in which the amino sugar analogues were at a concentration of 20 μM and were tested against the assay's only coupling enzyme, G6PDH, to verify enzyme activity; the assay was performed in quadruplicate. […] These confirmed hits included representatives from all three monosaccharide scaffolds tested (i.e., D-GlcN, D-ManN, and D-GalN).
# TcGlcK [7] = biological target: T2, TcGlcK; assay type: biochemical
# Method: as §1, with “In enzymatic assays, a time-optimum (TOPT) was determined to be 120 seconds for TcGlcK and 600 seconds for HsHxKIV; all assays were run at room temperature.” left out
# [8] = biological target: Homo sapiens hexokinase IV (HsHxKIV) (Homo sapiens (Human), UniProt P35557); assay: HsHxKIV enzyme-inhibition screening assay (Example 1); assay type: biochemical; details: 20 μM compound; N = 1
# Chain of Homo sapiens hexokinase IV (HsHxKIV) (P35557 whole entry): as the sequence (P35557 whole entry) above
# Method: as §1, §2
# [9] = tested on: Leishmania braziliensis glucokinase (LbGlcK); assay: Primary assay screen of LbGlcK, normalized percent inhibition (Example 2); assay type: biochemical; details: triplicate
# Method: as §3, §4, §5
# TcGlcK [10] = biological target: T2, TcGlcK; details: from D'Antonio, et al (2015); cited from earlier work
# [11] = tested on: T. cruzi (Tulahuen strain) infective form (trypomastigote and amastigote life stages) co-cultured in NIH-3T3 fibroblasts; assay: T. cruzi infective form growth inhibition in NIH-3T3 fibroblasts; assay type: cell-based, Trypanosoma cruzi; details: Tulahuen strain infective form in NIH-3T3 fibroblasts; N = 3 (Amphotericin B control: 6 replicates)
# Method: The curve and the IC50 were calculated from measurements determined in triplicate and expressed as percent growth inhibition of the T. cruzi parasite infection of mammalian cells.
# Compounds were further screened against the T. cruzi (Tulahuen strain) infective form (trypomastigote and amastigote life stages) co-cultured in NIH-3T3 fibroblasts to establish IC50 values. Assays were performed in triplicate.
# The single dose in vitro study included administration of the compounds in 80 μM inhibitor concentrations (N=3). Amphotericin B was used as a control.
# T. brucei = T. brucei in vitro screen; assay type: cell-based; details: Trypanosoma brucei; average; concentrations up to 10 μM, N=3
# Method: Compounds 19-31 were screened against T. brucei. The single dose in vitro study included administration of the compounds in increasing concentrations up to 10 μM (N=3 for each compound concentration value). Media and T. bricei+0.5% SDS were used as control.
# [12] = tested on: T. cruzi (Tulahuen strain) infective form (trypomastigote and amastigote life stages) co-cultured in NIH-3T3 fibroblasts; details: literature / previously measured values; infective form in NIH-3T3 fibroblasts; cited from earlier work
structure (smiles),measurement,setting,value
Nc1ncnc2c1ncn2[C@@H]1O[C@H](COP(=O)(O)OP(=O)(O)OP(=O)(O)O)[C@@H](O)[C@H]1O [ATP],Km,HsHxKIV [1],200 µM
same,Km,TcGlcK [2],340 µM
"O=C(NC1C(O)OC(CO)C(O)C1O)OCc1ccccc1 (centres unmarked) [CBZ-GlcN, carboxybenzyl glucosamine, reference compound]",NPI (%) HsHxKIV,HsHxKIV [3],15.0%
same,NPI (%) TcGlcK,TcGlcK [4],100%
same,TcGlcK Inh20 (%),[5],92%
"O=C(N[C@H]1C(O)O[C@H](CO)[C@@H](O)[C@@H]1O)c1ccccc1 (some centres unmarked) [Compound 1, Benzoyl glucosamine]",NPI (%) HsHxKIV,HsHxKIV [3],9.30%
same,G6PDH Inh20 (%),[6],0.5 ± 1.0%
same,Ki stronger than compound 5 by magnitude,TcGlcK [7]; relative to compound 5,4.3 fold
same,HsHxKIV Inh20(%),[8],39%
same,NPI (%) LbGlcK,[9],27.2%
same,NPI (%) TcGlcK,TcGlcK [4],100%
same,TcGlcK Inh20:HsHxKIV Inh20 ratio,[5]; higher values indicate more selective towards TcGlcK,1.65
same,TcGlcK Inh20 (%),[5],65% and 64.7%
same,Ki,TcGlcK [10],32 µM
O=C(N[C@H]1C(O)O[C@H](CO)[C@@H](O)[C@@H]1O)c1cc2ccccc2o1 (some centres unmarked) [Compound 5],G6PDH Inh20 (%),[6],0.0 ± 0.0%
same,mode of TcGlcK inhibition,TcGlcK [7],competitive inhibition
same,Ki,TcGlcK [7]; N = 3,139 ± 35 µM
same,IC50,[11],27.2 µM
same,HsHxKIV Inh20(%),[8],25%
same,TcGlcK Inh20 (%),[5],31% and 31.2%
O=[N+]([O-])C1=Cc2cc(Br)cc(Br)c2O[C@H]1c1c(Cl)cccc1Cl [Compound 19],NPI (%) HsHxKIV,HsHxKIV [3],82.1%
same,IC50,T. brucei,902 nM
same,NPI (%) TcGlcK,TcGlcK [4],62.3%
O=[N+]([O-])C1=Cc2cc(Br)ccc2O[C@H]1c1ccccc1Cl [Compound 20],NPI (%) HsHxKIV,HsHxKIV [3],64.7%
same,IC50,T. brucei,862 nM
same,NPI (%) TcGlcK,TcGlcK [4],89.5%
O=[N+]([O-])C1=Cc2ccccc2O[C@H]1c1c(Cl)cccc1Cl [Compound 22],NPI (%) HsHxKIV,HsHxKIV [3],66.0%
same,NPI (%) TcGlcK,TcGlcK [4],69.5%
O=C(Cn1ccnc1[N+](=O)[O-])NCc1ccccc1 [benznidazole],IC50,[12],1120 ± 10 nM
